Test results reported in patent US20150290260A1, “METHODS OF USE FOR PROBIOTICS AND PREBIOTICS” (Mead Johnson Nutrition Company, priority 2014, published 2015).

What was measured:
[1] = Viscera-motor response (VMR) to colorectal distension (CRD), rat colonic zymosan-treated hyperalgesia model; format: in vivo, rats
Procedure: Example 3 utilized a rat colonic zymosan-treated hyperalgesia model (i.e. a model of post-inflammatory visceral pain sensitivity). Zymosan was injected into the colon during the neonatal period producing short-term inflammation and subsequent long-term colonic hypersensitivity.
In this experiment, weanling rats were fed a control diet or control diet plus LGG and/or PDX/GOS for 40 days. The VMR to CRD was quantified using electromyographic (EMG) recordings from the external oblique muscle of the abdomen as an objective measure of visceral sensation in all groups. A stimulus-response function to graded CRD was constructed to test the colonic intensity dependent increase in EMG activity change of external oblique muscle.

[2] = tested on: neurotransmitters (biogenic monoamines) in the brain; test: Neurotransmitter levels in the brain by HPLC, neonatal zymosan visceral hyperalgesia rats; format: in vivo; details: brain stem, vs non-LGG treated rats, LGG P21-P60, FIG. 6A
Excerpt: This example describes the effect of LGG on the neurotransmitter levels in the brain. Briefly, chronic visceral hyperalgesia was induced in rats by administration of intracolonic zymosan (or normal saline for control) for three consecutive days during postnatal day 14-16 (P14-P16). LGG treatment was initiated after weaning (P21) and continued until P60. The levels of neurotransmitters and amino acids were quantified in the frontal cortex, sub-cortex, brain stem and cerebellum.
The quantitative assessment of neurotransmitters was conducted using HPLC-based separation followed by fluorescent and/or electrochemical detection. Briefly, brain sections were homogenized, using a tissue dismembrator, in 100-750 ul of 0.1 M TCA, which contains 10-2 M sodium acetate, 10^-4 M EDTA, 5 ng/ml isoproterenol (as internal standard) and 10.5% methanol (pH 3.8). Samples were spun in a microcentrifuge at 10000 g for 20 minutes. Samples of the supernatant were then analyzed for neurotransmitters (biogenic monoamines). Biogenic amines were determined by a specific HPLC assay utilizing an Antec Decade II (oxidation: 0.4) (3 mm GC WE, HYREF) electrochemical detector operated at 33° C. Twenty I samples of the supernatant were injected using a Water 2707 autosampler onto a Phenomenex Kintex (2.6u, 100 Å) C18 HPLC column (100×4.60 mm). Biogenic amines were eluted with a mobile phase consisting of 89.5% 0.1 M TCA, 10-2 M sodium acetate, 10^-4 M EDTA and 10.5% methanol (pH 3.8). Solvent was delivered at 0.6 ml/min using a Waters 515 HPLC pump. Using this HPLC solvent the following biogenic amines eluted in the following order: noradrenaline, Adrenaline, DOPAC, Dopamine, 5-HIAA, HVA, 5-HT, and 3-MT. HPLC control and data acquisition were managed by Empower software.

Substance: Lactobacillus rhamnosus GG [LGG]
- visceral hypersensitivity ([1]; neonatal colonic zymosan model): attenuated
- sensitivity to pain (EMG recordings) ([1]; p<0.05 vs Control+Zymosan, n=10, fed 40 days): significantly attenuated
- viscera-motor response (VMR) to CRD ([1]; zymosan-treated rats, FIG. 7): significantly attenuated
- level of 5-hydroxyindoleacetic acid (5-HIAA) [2]: significant increase
- level of noradrenaline (NA) [2]: significant increase
- level of serotonin (5-HT) [2]: significant increase
